Experiments:
β-PDGFR [1] = biological target: T1, β-PDGFR (Homo sapiens, UniProt P09619); assay: HR5 phosphorylation assay (CHO cells overexpressing human β-PDGFR, PDGF BB stimulation); assay type: cell-based; set-up: host or cells: CHO cells (HR5 line); details: 8 nM PDGF BB, PDGF receptor phosphorylation
Method: • (1) HR5 Phosphorylation Assay
The HR5 cell line is a cell line of CHO cells engineered to overexpress human β-PDGFR, which cell line is available from the ATCC. The expression level of β-PDGFR in HR5 cells is around 5×10^4 receptor per cell. For the phosphorylation assay according to the invention, HR5 cells were grown to confluency in 96-well microtiter plates under standard tissue culture conditions, followed by serum-starvation for 16 hours. Quiescent cells were incubated at 37° C. without or with increasing concentrations of the test compound (0.01-30 uM) for 30 minutes followed by the addition of 8 nM PDGF BB for 10 minutes. Cells were lysed in 100 mM Tris, pH 7.5, 750 mM NaCl, 0.5% Triton X-100, 10 mM sodium pyrophosphate, 50 mM NaF, 10 ug/ml aprotinin, 10 ug/ml leupeptin, 1 mM phenylmethylsulfonyl fluoride, 1 mM sodium vanadate, and the lysate was cleared by centrifugation at 15,000× g for 5 minutes. Clarified lysates were transferred into a second microtiter plate in which the wells were previously coated with 500 ng/well of 1B5B11 anti-β-PDGFR mAb, and then incubated for two hours at room temperature. […] Wells were washed prior to adding ABTS (Sigma), and the rate of substrate formation was monitored at 650 nm.

β-PDGFR [2] = biological target: T1, β-PDGFR; assay: MG63 phosphorylation assay (endogenous β-PDGFR phosphorylation, PDGF-BB stimulation with human plasma); assay type: cell-based; set-up: This assay is for measuring endogenous β-PDGFR phosphorylation in MG63 cells; endogenous in cells; host or cells: MG63 human osteosarcoma cells (ATCC); details: MG63 human osteosarcoma cells; PDGF-BB stimulation in presence of 45% human plasma; PDGF receptor phosphorylation; read-out: MG63 w/human plasma IC50
From the text: The MG63 cell line is a human osteosarcoma tumor cell line available from the ATCC. This assay is for measuring endogenous β-PDGFR phosphorylation in MG63 cells. The assay conditions are the same as those described at for HR5 cell, except that PDGF-BB stimulation is provided in the presence or absence of 45% human plasma.

T1 sequence (P09619 33-1106): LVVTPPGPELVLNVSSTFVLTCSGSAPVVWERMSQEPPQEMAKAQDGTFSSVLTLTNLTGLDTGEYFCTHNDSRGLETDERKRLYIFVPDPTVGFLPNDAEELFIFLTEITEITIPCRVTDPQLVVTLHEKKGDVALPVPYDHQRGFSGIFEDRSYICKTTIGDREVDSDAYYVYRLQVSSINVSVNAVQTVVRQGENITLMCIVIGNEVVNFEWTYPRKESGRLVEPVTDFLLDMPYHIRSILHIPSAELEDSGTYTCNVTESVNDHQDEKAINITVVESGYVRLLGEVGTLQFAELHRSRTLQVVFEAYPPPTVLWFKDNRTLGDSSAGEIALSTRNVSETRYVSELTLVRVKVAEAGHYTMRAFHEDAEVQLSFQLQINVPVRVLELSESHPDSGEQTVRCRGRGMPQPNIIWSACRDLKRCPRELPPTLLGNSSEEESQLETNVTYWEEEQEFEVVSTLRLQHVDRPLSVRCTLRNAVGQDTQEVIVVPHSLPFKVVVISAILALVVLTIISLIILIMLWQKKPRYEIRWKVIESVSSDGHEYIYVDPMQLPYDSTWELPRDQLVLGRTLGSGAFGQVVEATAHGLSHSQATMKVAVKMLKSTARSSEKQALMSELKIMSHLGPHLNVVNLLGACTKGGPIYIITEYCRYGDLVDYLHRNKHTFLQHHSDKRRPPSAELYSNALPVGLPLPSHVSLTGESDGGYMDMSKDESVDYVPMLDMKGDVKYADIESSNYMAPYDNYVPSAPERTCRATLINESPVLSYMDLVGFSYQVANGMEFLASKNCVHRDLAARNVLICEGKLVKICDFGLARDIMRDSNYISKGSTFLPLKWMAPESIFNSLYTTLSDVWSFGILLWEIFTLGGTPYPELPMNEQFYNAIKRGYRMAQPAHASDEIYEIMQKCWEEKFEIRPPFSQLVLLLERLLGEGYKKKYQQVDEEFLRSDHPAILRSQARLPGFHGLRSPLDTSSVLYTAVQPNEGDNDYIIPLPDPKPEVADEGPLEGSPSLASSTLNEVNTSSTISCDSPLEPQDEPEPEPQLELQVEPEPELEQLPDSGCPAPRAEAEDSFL

IC50 (β-PDGFR [1]): 60 nM | IC50 (β-PDGFR [2]): 134 nM
Compound: COc1cc2c(N3CCN(C(=O)Nc4ccc(OC(C)C)cc4)CC3)c(C#N)cnc2cc1OCCCN1CCCCC1 [Example 1, {4-[3-cyano-6-methoxy-7-(3-pipetidylpropoxy)quinolin-4-yl)piperazinyl}-N-[4-(methylethoxy)phenyl]carboxamide]

Reference: patent US6960580B2, “Nitrogenous heterocyclic substituted quinoline compounds” (Millennium Pharmaceuticals, Inc., priority 2001, dated 2005)
